≈ marks a conversion by molar mass, not a printed value.

We go through four molecules from publication PMC11881561 (Antimicrobial Agents and Chemotherapy, 2025).

The target of data set [1] is T1, KPC-3^D179Y (Klebsiella pneumoniae, UniProt Q9F663, D178Y/H272Y). The data set is described as follows: β-lactam hydrolysis kinetics, purified KPC-3 D179Y. The note with it: substrate hydrolysis by KPC-3 D179Y. The data set is classed as biochemical. The method, then:
(§1) Measurements to determine kinetic parameters for hydrolysis, and kinetic parameters for inhibition were performed at ambient temperature in PBS (pH 7.4) containing 0.1 mg/mL bovine serum albumin, using a PowerWaveXS plate reader (BioTek).
(§2) Assays to determine Michaelis-Menten kinetic parameters were performed by mixing variable amounts of enzymes (depending on the enzyme-substrate pair), with serial dilutions of different BL substrates and continuously monitoring the reduction in absorbance associated with BL hydrolysis ([28], [36], [40], [41]). Kinetic parameters were determined by plotting initial rates of hydrolysis (v) as a function of substrate concentration [S] and fitting the data to equation 1 using GraphPad Prism,
(§3) (1) v=[Et]×kcat×[S]/KM+[S]
(§4) where [Et] is the enzyme concentration, kcat the turnover number and KM the Michaelis constant.

Data set [2] has as its target KPC-2^V240G (Klebsiella pneumoniae, UniProt Q9F663, V239G). The data set is classed as biochemical.
Data set [3] deals with T2, KPC-2^D179Y (Klebsiella pneumoniae, UniProt Q9F663, D178Y). The data set is described as follows: β-lactam hydrolysis kinetics, purified KPC-2 D179Y. The note with it: substrate hydrolysis by KPC-2 D179Y. Type of data set: biochemical. The method, then:
as §1, §2, §3, §4

The target of data set [4] is T3, KPC-3 WT (Klebsiella pneumoniae, UniProt Q9F663, H272Y). The data set is classed as biochemical. The settings on record: substrate hydrolysis by KPC-3 WT.
Data set [5] has as its target T4, KPC-2^D179Y/T243M (Klebsiella pneumoniae, UniProt Q9F663, D178Y/T242M). The data set is described as follows: β-lactam hydrolysis kinetics, purified KPC-2 D179Y/T243M. The settings on record: substrate hydrolysis by KPC-2 D179Y/T243M. Type of data set: biochemical. The method, then:
as §1, §2, §3, §4

In data set [6] the target is T5, KPC-3^D179Y/T243M (Klebsiella pneumoniae, UniProt Q9F663, D178Y/H272Y/T242M). The data set is described as follows: β-lactam hydrolysis kinetics, purified KPC-3 D179Y/T243M. The data set is classed as biochemical. The settings on record: substrate hydrolysis by KPC-3 D179Y/T243M. The procedure: as §1, §2, §3, §4
Data set [7] concerns the target T6, KPC-2 WT (Klebsiella pneumoniae, UniProt Q9F663). The note with it: substrate hydrolysis by KPC-2 WT.
The target in data set [8] is KPC-3^V240G (Klebsiella pneumoniae, UniProt Q9F663, H272Y/V239G). Type of data set: biochemical.
In data set [9] the test system is engineered E. coli strain expressing KPC-2^D179Y/T243M. The data set can be described thus: microbe, parasite or virus in culture. The data set is classed as cell-based. The settings on record: Escherichia coli, BLIs at fixed 4 μg/mL.
Data set [10] relates to engineered E. coli strain expressing KPC-2 wt. The data set is described as follows: microbe, parasite or virus in culture. The data set is classed as cell-based. The note with it: Escherichia coli; KPC-2 wt strain; BLIs at fixed 4 μg/mL.
Data set [11] concerns engineered E. coli strain expressing KPC-2^V240G. The data set can be described thus: microbe, parasite or virus in culture. The note with it: Escherichia coli, BLIs at fixed 4 μg/mL. Type of data set: cell-based.
For data set [12], the system named is E. coli control strain lacking a β-lactamase. The data set can be described thus: microbe, parasite or virus in culture. The data set is classed as cell-based. The note with it: Escherichia coli, no KPC expressed, BLIs at fixed 4 μg/mL.
Data set [13] addresses T3, KPC-3 WT. The data set can be described thus: biochemical. The note with it: inhibition of CENTA hydrolysis, read-out: Apparent affinity Ki^app.
Data set [14] addresses T6, KPC-2 WT. The data set can be described thus: biochemical. The note with it: inhibition of CENTA hydrolysis, read-out: Apparent affinity Ki^app.
Data set [15] concerns engineered E. coli strain expressing KPC-2^D179Y. The data set is described as follows: microbe, parasite or virus in culture. Type of data set: cell-based. The note with it: Escherichia coli, BLIs at fixed 4 μg/mL.
In data set [16] the test system is engineered E. coli strain expressing KPC-3^V240G. The data set is described as follows: microbe, parasite or virus in culture. The data set is classed as cell-based. The note with it: Escherichia coli, BLIs at fixed 4 μg/mL.
Data set [17] relates to engineered E. coli strain expressing KPC-3^D179Y/T243M. The data set is described as follows: microbe, parasite or virus in culture. The settings on record: Escherichia coli, BLIs at fixed 4 μg/mL. The data set is classed as cell-based.
The test system of data set [18] is engineered E. coli strain expressing KPC-3 wt. The data set is described as follows: microbe, parasite or virus in culture. Type of data set: cell-based. The settings on record: Escherichia coli; KPC-3 wt strain; BLIs at fixed 4 μg/mL.
For data set [19], the system named is engineered E. coli strain expressing KPC-3^D179Y. The data set can be described thus: microbe, parasite or virus in culture. The data set is classed as cell-based. The settings on record: Escherichia coli, BLIs at fixed 4 μg/mL.
The subject of data set [20] is D179Y-containing KPC-2 variants. The data set is classed as biochemical, Klebsiella pneumoniae.
In data set [21] the target is T1, KPC-3^D179Y. The data set can be described thus: biochemical. The note with it: ND = no significant inhibition at the highest concentration tested, read-out: Apparent affinity Ki^app.
In data set [22] the test system is E. coli strains expressing KPC-2^D179Y or KPC-2^D179Y/T243M. The data set is described as follows: microbe, parasite or virus in culture. The data set is classed as cell-based. The settings on record: Escherichia coli.
Data set [23] has as its target T4, KPC-2^D179Y/T243M. The data set can be described thus: biochemical. The settings on record: ND = no significant inhibition at the highest concentration tested, read-out: Apparent affinity Ki^app.
Data set [24] deals with T2, KPC-2^D179Y. The data set can be described thus: biochemical. The settings on record: ND = no significant inhibition at the highest concentration tested, read-out: Apparent affinity Ki^app.
The target of data set [25] is T5, KPC-3^D179Y/T243M. The data set is described as follows: biochemical. The note with it: ND = no significant inhibition at the highest concentration tested, read-out: Apparent affinity Ki^app.
Data set [26] deals with CO/N=C(\C(=O)N[C@@H]1C(=O)N2C(C(=O)[O-])=C(C[N+]3(C)CCCC3)CS[C@H]12)c1csc(N)n1. The data set is described as follows: purified protein, by the assay type. The note with it: pH 7.4.
Data set [27] concerns CC(C)(O/N=C(\C(=O)N[C@@H]1C(=O)N2C(C(=O)[O-])=C(C[n+]3ccccc3)CS[C@H]12)c1csc(N)n1)C(=O)O. The data set is described as follows: purified protein, by the assay type. The settings on record: pH 7.4.
Data set [28] relates to Nc1nc(/C(=C/CC(=O)O)C(=O)N[C@@H]2C(=O)N3C(C(=O)O)=CCS[C@H]23)cs1. The data set can be described thus: purified protein, by the assay type. The note with it: pH 7.4.

In general, Km refers to the substrate concentration at which the rate is half of its maximum. As usually defined, the kcat is the maximal rate divided by the concentration of active sites. For the molecule `O=C(Cc1cccs1)N[C@@H]1C(=O)N2C(C(=O)O)=C(CSc3ccc([N+](=O)[O-])c(C(=O)O)c3)CS[C@H]12` [CENTA], the Km in [1] turned out to be 124 ± 17 µM; in data set [2], 63.3 ± 2.3 µM; in data set [3] it was 1.9 ± 0.2 µM; in data set [4] it was 105 ± 24 µM; in data set [5], 2.1 ± 0.3 µM; in data set [6] it was 153 ± 25 µM. Also, the Km in data set [7] (PBS pH 7.4) stood at 19.7 ± 1.3 µM; in [8] it was 54.8 ± 8.3 µM. Also, the kcat in [1] is 0.24 ± 0.02 s⁻¹; in data set [2] it was 662 ± 9.6 s⁻¹; in data set [3], “(1.2 ± 0.08) × 10^−2 s^−1”; in data set [4], 38 ± 3.4 s⁻¹; in data set [5] it was “(0.9 ± 0.04) × 10^−2 s^−1”; in [6] it was 0.18 ± 0.02 s⁻¹. Besides, the kcat is 243 ± 11 s⁻¹ in data set [7] and 12.7 ± 1.1 s⁻¹ in data set [8].

As for `Nc1nc(/C(=C/CC(=O)O)C(=O)N[C@@H]2C(=O)N3C(C(=O)O)=CCS[C@H]23)cs1` [CTB, ceftibuten], the MIC turned out to be 16 µg/mL (≈ 39 µM) in data set [9]; 16 µg/mL (≈ 39 µM) in [10]; 64 µg/mL (≈ 156 µM) in data set [11]; 1 µg/mL (≈ 2.44 µM) in [12]; 16 µg/mL (≈ 39 µM) in [15]; 32 µg/mL (≈ 78 µM) in data set [16]. Also, the MIC in data set [17] came to 16 µg/mL (≈ 39 µM); in data set [18] it was 32 µg/mL (≈ 78 µM); in data set [19] it was 32 µg/mL (≈ 78 µM). Further, the Ki amounted to 368 ± 26 µM in data set [13] and 159 ± 10 µM in [14].

Consider `CO/N=C(\C(=O)N[C@@H]1C(=O)N2C(C(=O)[O-])=C(C[N+]3(C)CCCC3)CS[C@H]12)c1csc(N)n1` [FEP, cefepime], for which the MIC in data set [9] came to 16 µg/mL (≈ 33.3 µM); in data set [10] it was 64 µg/mL (≈ 133 µM); in data set [11] it was 128 µg/mL (≈ 266 µM); in data set [12] it was 0.12 µg/mL (≈ 0.25 µM); in data set [22], 16 µg/mL (≈ 33.3 µM); in [15] it was 16 µg/mL (≈ 33.3 µM). Moreover, the MIC in data set [16] turned out to be 256 µg/mL (≈ 533 µM); in data set [17], 16 µg/mL (≈ 33.3 µM); in data set [18] it was 128 µg/mL (≈ 266 µM); in data set [19], 32 µg/mL (≈ 66.6 µM). For the same molecule, the Km in data set [1] was 90 ± 31 µM; in [2], over 500 µM; in data set [3], 3.7 ± 0.7 µM; in data set [4] it was over 500 µM; in data set [5] it was 3 ± 0.6 µM; in data set [6] it was 42.5 ± 12.5 µM. The Km in data set [8] was over 500 µM. Also, the turnover number (kcat) was 38 ± 7 s⁻¹ in data set [1], “(1.5 ± 0.07) × 10^−2 s^−1” in data set [3], “(1.7 ± 0.06) × 10^−2 s^−1” in [5] and 18.7 ± 2.3 s⁻¹ in data set [6]. For the same molecule, in data set [20], the “weaker affinity than CAZ” value is ~ 10 fold. Besides, the Ki in [21] was 1040 ± 72 µM; in [13], 276 ± 47 µM; in data set [23], 3.2 ± 0.6 µM; in data set [14], 32.9 ± 5.6 µM; in data set [24], 4.6 ± 1.2 µM; in data set [25], 728 ± 58 µM.

As a reminder, the kcat/Km is the turnover number divided by the Michaelis constant. Consider KPC-2 WT (Klebsiella pneumoniae), for which the kcat/Km in data set [26] is 130000 ± 4000 M⁻¹ s⁻¹; in data set [27], 730 ± 130 M⁻¹ s⁻¹; in [28], 2200 ± 240 M⁻¹ s⁻¹.
